According to US20240238423A9, “TETRAHYDROISOQUINOLINE HETEROBIFUNCTIONAL BCL-XL DEGRADERS” (Treeline Biosciences, Inc., priority 2022, published 2024):

Target: T1, Human BCL-XL protein (N-terminal HiBiT tagged BCL-XL in HT1080 cells) (Homo sapiens, UniProt Q07817)
T1 construct: expressed in transfected cells; host or cells: HT-1080 (ATCC CCL-121), stably transduced with lentivirus pLV-UBC-N-HiBiT-BCL-XL-PGK-puro and selected with puromycin
Assay: HiBiT based degradation assay
Assay type: cell-based
Details: HT1080 cells expressing HiBiT-BCL-XL, 24 h; for Ymin (24 h): BCL-XL degradation normalized with DMSO control; for DC50: BCL-XL degradation, read-out: EC50 (24 h)
Procedure, shortened: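 This HiBiT degradation assay measured loss of BCL-XL in HT1080 cells that stably express an N-terminal HiBiT-BCL-XL fusion delivered by lentivirus. Cells were added to compound-spotted 384-well plates, and luminescence was read on a PHERAstar FSX reader. Signal was expressed relative to DMSO controls, curves were fitted by four-parameter logistic regression, and for hook-shaped curves the Ymin point served as the bottom plateau when calculating EC50.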

T1 sequence (Q07817 whole entry): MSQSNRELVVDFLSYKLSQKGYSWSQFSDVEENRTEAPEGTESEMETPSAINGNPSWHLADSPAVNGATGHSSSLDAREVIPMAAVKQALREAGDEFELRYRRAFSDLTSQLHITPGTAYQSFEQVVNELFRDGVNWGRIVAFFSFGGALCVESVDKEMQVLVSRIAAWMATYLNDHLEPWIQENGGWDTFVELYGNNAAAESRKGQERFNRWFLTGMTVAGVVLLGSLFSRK

Ymin (24 h)	DC50 [nM]	SMILES
A (Ymin < 50%)	< 100	Cc1c(O[C@H]2CC[C@H](CCCN3CCN(c4ccc5c(C6CCC(=O)NC6=O)nn(C)c5c4C)CC3)CC2)cccc1-c1ccc(N2CCc3cccc(C(=O)Nc4nc5ccccc5s4)c3C2)nc1C(=O)O (stereo partly drawn) [Compound 334a, 6-(8-(benzo[d]thiazol-2-ylcarbamoyl)-3,4-dihydroisoquinolin-2(1H)-yl)-3-(3-(((1s,4r)-4-(3-(4-(3-(2,6-dioxopiperidin-3-yl)-1,7-dimethyl-1H-indazol-6-yl)piperazin-1-yl)propyl)cyclohexyl)oxy)-2-methylphenyl)picolinic acid]
A (Ymin < 50%)	< 100	Cc1cc2c(C3CCC(=O)NC3=O)nn(C)c2cc1N1CCN(CCC[C@H]2CC[C@H](Oc3cccc(-c4ccc(N5CCc6cccc(C(=O)Nc7nc8ccccc8s7)c6C5)nc4C(=O)O)c3C)CC2)CC1 (stereo partly drawn) [Compound 335a, 6-(8-(benzo[d]thiazol-2-ylcarbamoyl)-3,4-dihydroisoquinolin-2(1H)-yl)-3-(3-(((1s,4r)-4-(3-(4-(3-(2,6-dioxopiperidin-3-yl)-1,5-dimethyl-1H-indazol-6-yl)piperazin-1-yl)propyl)cyclohexyl)oxy)-2-methylphenyl)picolinic acid]
A (Ymin < 50%)	< 100	Cc1c(O[C@H]2CC[C@H](CCCN3CCN(c4ccc5c(C6CCC(=O)NC6=O)nn(C)c5c4)CC3(C)C)CC2)cccc1-c1ccc(N2CCc3cccc(C(=O)Nc4nc5ccccc5s4)c3C2)nc1C(=O)O (stereo partly drawn) [Compound 336a, 6-(8-(benzo[d]thiazol-2-ylcarbamoyl)-3,4-dihydroisoquinolin-2(1H)-yl)-3-(3-(((1s,4r)-4-(3-(4-(3-(2,6-dioxopiperidin-3-yl)-1-methyl-1H-indazol-6-yl)-2,2-dimethylpiperazin-1-yl)propyl)cyclohexyl)oxy)-2-methylphenyl)picolinic acid]
A (Ymin < 50%)	< 100	Cc1c(O[C@H]2CC[C@H](CCCN3CCC(Oc4ccc5c(C6CCC(=O)NC6=O)nn(C)c5c4)CC3)CC2)cccc1-c1ccc(N2CCc3cccc(C(=O)Nc4nc5ccccc5s4)c3C2)nc1C(=O)O (stereo partly drawn) [Compound 337a, 6-(8-(benzo[d]thiazol-2-ylcarbamoyl)-3,4-dihydroisoquinolin-2(1H)-yl)-3-(3-(((1s,4r)-4-(3-(4-((3-(2,6-dioxopiperidin-3-yl)-1-methyl-1H-indazol-6-yl)oxy)piperidin-1-yl)propyl)cyclohexyl)oxy)-2-methylphenyl)picolinic acid]
A (Ymin < 50%)	< 100	Cc1c(O[C@H]2CC[C@H](CCCN3CCC(Oc4cccc5c(C6CCC(=O)NC6=O)nn(C)c45)CC3)CC2)cccc1-c1ccc(N2CCc3cccc(C(=O)Nc4nc5ccccc5s4)c3C2)nc1C(=O)O (stereo partly drawn) [Compound 338a, 6-(8-(benzo[d]thiazol-2-ylcarbamoyl)-3,4-dihydroisoquinolin-2(1H)-yl)-3-(3-(((1s,4r)-4-(3-(4-((3-(2,6-dioxopiperidin-3-yl)-1-methyl-1H-indazol-7-yl)oxy)piperidin-1-yl)propyl)cyclohexyl)oxy)-2-methylphenyl)picolinic acid]
B (50% ≤ Ymin < 70%)	< 100	Cc1c(O[C@H]2CC[C@H](CCCCN3CCN(c4ccc5c(C6CCC(=O)NC6=O)nn(C)c5c4)[C@@H](C(F)(F)F)C3)CC2)cccc1-c1ccc(N2CCc3cccc(C(=O)Nc4nc5ccccc5s4)c3C2)nc1C(=O)O (stereo partly drawn) [Compound 339a, 6-(8-(benzo[d]thiazol-2-ylcarbamoyl)-3,4-dihydroisoquinolin-2(1H)-yl)-3-(3-(((1s,4r)-4-(4-((3R)-4-(3-(2,6-dioxopiperidin-3-yl)-1-methyl-1H-indazol-6-yl)-3-(trifluoromethyl)piperazin-1-yl)butyl)cyclohexyl)oxy)-2-methylphenyl)picolinic acid]
A (Ymin < 50%)	< 100	Cc1c(O[C@H]2CC[C@H](CCC(C)(C)N3CCN(c4ccc5c(C6CCC(=O)NC6=O)nn(C)c5c4)CC3)CC2)cccc1-c1ccc(N2CCc3cccc(C(=O)Nc4nc5ccccc5s4)c3C2)nc1C(=O)O (stereo partly drawn) [Compound 340a, 6-(8-(benzo[d]thiazol-2-ylcarbamoyl)-3,4-dihydroisoquinolin-2(1H)-yl)-3-(3-(((1s,4r)-4-(3-(4-(3-(2,6-dioxopiperidin-3-yl)-1-methyl-1H-indazol-6-yl)piperazin-1-yl)-3-methylbutyl)cyclohexyl)oxy)-2-methylphenyl)picolinic acid]
A (Ymin < 50%)	< 100	Cc1c(O[C@H]2CC[C@H](CCC(C)(C)N3CCN(c4cccc5c(C6CCC(=O)NC6=O)nn(C)c45)CC3)CC2)cccc1-c1ccc(N2CCc3cccc(C(=O)Nc4nc5ccccc5s4)c3C2)nc1C(=O)O (stereo partly drawn) [Compound 341a, 6-(8-(benzo[d]thiazol-2-ylcarbamoyl)-3,4-dihydroisoquinolin-2(1H)-yl)-3-(3-(((is, 4r)-4-(3-(4-(3-(2,6-dioxopiperidin-3-yl)-1-methyl-1H-indazol-7-yl)piperazin-1-yl)-3-methylbutyl)cyclohexyl)oxy)-2-methylphenyl)picolinic acid]
A (Ymin < 50%)	< 100	Cc1c(O[C@H]2CC[C@H](CCCC(C)(C)N3CCN(c4cccc5c(C6CCC(=O)NC6=O)nn(C)c45)CC3)CC2)cccc1-c1ccc(N2CCc3cccc(C(=O)Nc4nc5ccccc5s4)c3C2)nc1C(=O)O (stereo partly drawn) [Compound 342a, 6-(8-(benzo[d]thiazol-2-ylcarbamoyl)-3,4-dihydroisoquinolin-2(1H)-yl)-3-(3-(((1s,4r)-4-(4-(4-(3-(2,6-dioxopiperidin-3-yl)-1-methyl-1H-indazol-7-yl)piperazin-1-yl)-4-methylpentyl)cyclohexyl)oxy)-2-methylphenyl)picolinic acid]
A (Ymin < 50%)	< 100	Cc1c(OCCC[C@@H]2CCN(CC(=O)Nc3ccc4c(C5CCC(=O)NC5=O)nn(C)c4c3)[C@H](C)C2)cccc1-c1ccc(N2CCc3cccc(C(=O)Nc4nc5ccccc5s4)c3C2)nc1C(=O)O (stereo partly drawn) [Compound 343a, 6-(8-(benzo[d]thiazol-2-ylcarbamoyl)-3,4-dihydroisoquinolin-2(1H)-yl)-3-(3-(3-((2R,4R)-1-(2-((3-(2,6-dioxopiperidin-3-yl)-1-methyl-1H-indazol-6-yl)amino)-2-oxoethyl)-2-methylpiperidin-4-yl)propoxy)-2-methylphenyl)picolinic acid]
A (Ymin < 50%)	< 100	Cc1c(OCCC[C@H]2CCN(CC(=O)Nc3ccc4c(C5CCC(=O)NC5=O)nn(C)c4c3)[C@H](C)C2)cccc1-c1ccc(N2CCc3cccc(C(=O)Nc4nc5ccccc5s4)c3C2)nc1C(=O)O (stereo partly drawn) [Compound 343b, 6-[8-(1,3-benzothiazol-2-ylcarbamoyl)-3,4-dihydro-1H-isoquinolin-2-yl]-3-[3-[3-[(2R,4S)-1-[2-[[3-(2,6-dioxo-3-piperidyl)-1-methyl-indazol-6-yl]amino]-2-oxo-ethyl]-2-methyl-4-piperidyl]propoxy]-2-methyl-phenyl]pyridine-2-carboxylic acid]
A (Ymin < 50%)	< 100	Cc1c(OCCC[C@@H]2CCN(CC(=O)Nc3ccc4c(C5CCC(=O)NC5=O)nn(C)c4c3)[C@@H](C)C2)cccc1-c1ccc(N2CCc3cccc(C(=O)Nc4nc5ccccc5s4)c3C2)nc1C(=O)O (stereo partly drawn) [Compound 343c, 6-(8-(benzo[d]thiazol-2-ylcarbamoyl)-3,4-dihydroisoquinolin-2(1H)-yl)-3-(3-(3-((2S,4R)-1-(2-((3-(2,6-dioxopiperidin-3-yl)-1-methyl-1H-indazol-6-yl)amino)-2-oxoethyl)-2-methylpiperidin-4-yl)propoxy)-2-methylphenyl)picolinic acid]
A (Ymin < 50%)	< 100	Cc1c(OCCC[C@H]2CCN(CC(=O)Nc3ccc4c(C5CCC(=O)NC5=O)nn(C)c4c3)[C@@H](C)C2)cccc1-c1ccc(N2CCc3cccc(C(=O)Nc4nc5ccccc5s4)c3C2)nc1C(=O)O (stereo partly drawn) [Compound 343d, 6-[8-(1,3-benzothiazol-2-ylcarbamoyl)-3,4-dihydro-1H-isoquinolin-2-yl]-3-[3-[3-[(2S,4S)-1-[2-[[3-(2,6-dioxo-3-piperidyl)-1-methyl-indazol-6-yl]amino]-2-oxo-ethyl]-2-methyl-4-piperidyl]propoxy]-2-methyl-phenyl]pyridine-2-carboxylic acid]
A (Ymin < 50%)	< 100	Cc1cc(OCCC[C@H]2CCN(CC(=O)Nc3ccc4c(C5CCC(=O)NC5=O)nn(C)c4c3)[C@@H](C)C2)ccc1-c1ccc(N2CCc3cccc(C(=O)Nc4nc5ccccc5s4)c3C2)nc1C(=O)O (stereo partly drawn) [Compound 344a, 6-[8-(1,3-benzothiazol-2-ylcarbamoyl)-3,4-dihydro-1H-isoquinolin-2-yl]-3-[4-[3-[(2S,4S)-1-[2-[[3-(2,6-dioxo-3-piperidyl)-1-methyl-indazol-6-yl]amino]-2-oxo-ethyl]-2-methyl-4-piperidyl]propoxy]-2-methyl-phenyl]pyridine-2-carboxylic acid]
A (Ymin < 50%)	< 100	Cc1cc(OCCC[C@@H]2CCN(CC(=O)Nc3ccc4c(C5CCC(=O)NC5=O)nn(C)c4c3)[C@H](C)C2)ccc1-c1ccc(N2CCc3cccc(C(=O)Nc4nc5ccccc5s4)c3C2)nc1C(=O)O (stereo partly drawn) [Compound 344b, 6-[8-(1,3-benzothiazol-2-ylcarbamoyl)-3,4-dihydro-1H-isoquinolin-2-yl]-3-[4-[3-[(2R,4R)-1-[2-[[3-(2,6-dioxo-3-piperidyl)-1-methyl-indazol-6-yl]amino]-2-oxo-ethyl]-2-methyl-4-piperidyl]propoxy]-2-methyl-phenyl]pyridine-2-carboxylic acid]
